# Results from ChEMBL document CHEMBL5257060, “Trust Your Gut: Strategies and Tactics for Intestinally Restricted Drugs” (ACS Med Chem Lett, 2023).
# pEC50, pIC50: −log10 of the molar value.
# Experiments:
# [1] = target: T1, Sodium/hydrogen exchanger 3 (Homo sapiens, UniProt P48764); test: Inhibition of human NHE3
# T1 sequence (P48764 whole entry): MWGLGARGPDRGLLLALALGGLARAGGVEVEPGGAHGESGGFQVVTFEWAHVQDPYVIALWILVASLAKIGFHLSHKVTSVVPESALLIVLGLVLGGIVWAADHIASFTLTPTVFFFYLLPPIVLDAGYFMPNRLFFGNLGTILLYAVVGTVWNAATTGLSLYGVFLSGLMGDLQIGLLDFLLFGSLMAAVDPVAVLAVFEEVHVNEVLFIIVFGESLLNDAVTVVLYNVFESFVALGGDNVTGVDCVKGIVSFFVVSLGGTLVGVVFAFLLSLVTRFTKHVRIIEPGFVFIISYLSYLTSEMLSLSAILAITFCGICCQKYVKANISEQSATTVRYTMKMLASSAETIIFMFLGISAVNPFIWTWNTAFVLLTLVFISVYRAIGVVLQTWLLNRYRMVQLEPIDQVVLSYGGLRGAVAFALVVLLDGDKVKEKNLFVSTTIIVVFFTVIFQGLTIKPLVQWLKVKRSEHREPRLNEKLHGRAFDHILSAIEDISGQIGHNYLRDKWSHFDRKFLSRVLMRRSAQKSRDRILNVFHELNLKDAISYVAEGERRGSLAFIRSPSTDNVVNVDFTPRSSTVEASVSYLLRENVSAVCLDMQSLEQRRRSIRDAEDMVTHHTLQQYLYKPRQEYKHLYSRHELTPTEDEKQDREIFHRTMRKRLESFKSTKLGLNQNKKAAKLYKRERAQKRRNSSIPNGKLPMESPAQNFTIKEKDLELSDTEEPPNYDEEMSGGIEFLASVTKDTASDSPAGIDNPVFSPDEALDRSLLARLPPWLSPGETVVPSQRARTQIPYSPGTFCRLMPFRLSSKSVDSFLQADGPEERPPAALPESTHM
# [2] = Drug recovery in feces of rats at 30 mg/kg, po; assay type: ADME, organism-based; conditions: rat, faeces, read-out: Drug recovery
# [3] = Cmax in rat at 30 mg/kg, po; assay type: ADME, organism-based; parameters: dose 30 mg/kg, route po; conditions: in vivo
# [4] = target: T2, G-protein coupled bile acid receptor 1 (Mus musculus, UniProt Q80SS6); test: Inhibition of mouse TGR5
# T2 sequence (Q80SS6 whole entry): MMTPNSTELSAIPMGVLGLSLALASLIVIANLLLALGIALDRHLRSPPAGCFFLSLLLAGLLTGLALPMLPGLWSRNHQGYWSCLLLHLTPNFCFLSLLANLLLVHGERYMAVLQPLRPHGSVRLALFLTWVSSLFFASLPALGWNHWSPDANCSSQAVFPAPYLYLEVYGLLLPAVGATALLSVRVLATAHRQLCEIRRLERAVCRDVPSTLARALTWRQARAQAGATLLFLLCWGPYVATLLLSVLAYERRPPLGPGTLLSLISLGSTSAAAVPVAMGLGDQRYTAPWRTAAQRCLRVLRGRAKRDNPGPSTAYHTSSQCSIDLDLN
# [5] = Apparent permeability across apical to basolateral side in human Caco-2 cells; assay type: ADME, cell-based
# [6] = Drug recovery in feces of mouse at 5 mg/kg, po; assay type: ADME, organism-based; conditions: faeces, read-out: Drug recovery
# [7] = AUC in mouse at 5 mg/kg, po; assay type: ADME, organism-based; parameters: dose 5 mg/kg, route po; conditions: in vivo
# [8] = Drug concentration in mouse intestine at 30 mg/kg, po measured for 2 hr; assay type: ADME, organism-based; conditions: read-out: Ct
# [9] = Drug concentration in mouse plasma at 30 mg/kg, po measured for 2 hr; assay type: ADME, organism-based
# [10] = Apparent permeability across apical to basolateral side in human Caco-2 cells by PAMPA assay; assay type: ADME, cell-based
# Dipeptidyl peptidase 4 = Dipeptidyl peptidase 4 (Mus musculus, UniProt P28843); test: Inhibition of mouse DPP4
# [11] = Cmax in ICR mouse plasma at 150 mg/kg, po measured at 1 hr post dose; assay type: ADME, organism-based; parameters: time 1 hrs, dose 150 mg/kg, route po
# [12] = Cmax in mouse colon at 10 mg/kg, po; assay type: ADME, organism-based; parameters: dose 10 mg/kg, route po
# [13] = Apparent permeability in human Caco-2 cells; assay type: ADME, cell-based
# [14] = Efflux ratio of apparent permeability in human Caco-2 cells; assay type: ADME, cell-based
# [15] = Cmax in mouse plasma at 10 mg/kg, po; assay type: ADME, organism-based; parameters: dose 10 mg/kg, route po
# [16] = Cmax in rat plasma at 10 mg/kg, po; assay type: ADME, organism-based; parameters: dose 10 mg/kg, route po
# [17] = Cmax in mouse colon content at 10 mg/kg, po; assay type: ADME, organism-based; parameters: dose 10 mg/kg, route po
# [18] = Drug recovery in feces of rats at 20 mg, po; assay type: ADME; conditions: rat, faeces, read-out: Drug recovery
# Sequence of Dipeptidyl peptidase 4 (P28843 whole entry): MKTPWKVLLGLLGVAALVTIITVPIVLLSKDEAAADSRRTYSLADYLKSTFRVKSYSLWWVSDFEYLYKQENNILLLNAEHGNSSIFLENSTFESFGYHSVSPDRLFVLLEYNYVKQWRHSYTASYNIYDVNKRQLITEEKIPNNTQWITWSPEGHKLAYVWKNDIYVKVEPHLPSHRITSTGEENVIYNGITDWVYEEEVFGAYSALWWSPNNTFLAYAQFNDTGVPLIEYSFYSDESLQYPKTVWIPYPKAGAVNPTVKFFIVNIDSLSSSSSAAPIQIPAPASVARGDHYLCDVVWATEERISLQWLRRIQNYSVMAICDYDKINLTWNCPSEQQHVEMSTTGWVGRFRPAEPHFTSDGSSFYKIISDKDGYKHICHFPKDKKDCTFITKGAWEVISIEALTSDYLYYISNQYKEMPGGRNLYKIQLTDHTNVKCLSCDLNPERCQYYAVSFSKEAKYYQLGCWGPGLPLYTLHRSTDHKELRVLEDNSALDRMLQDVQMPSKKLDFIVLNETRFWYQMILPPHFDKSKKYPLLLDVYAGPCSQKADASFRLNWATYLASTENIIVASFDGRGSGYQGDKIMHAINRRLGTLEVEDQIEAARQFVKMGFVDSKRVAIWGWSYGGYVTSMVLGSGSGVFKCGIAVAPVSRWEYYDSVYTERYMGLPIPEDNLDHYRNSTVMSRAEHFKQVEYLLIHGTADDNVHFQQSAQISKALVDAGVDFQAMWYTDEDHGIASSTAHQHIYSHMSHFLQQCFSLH
structure (smiles),measurement,setting,value
CN1Cc2c(Cl)cc(Cl)cc2[C@@H](c2cccc(S(=O)(=O)NCCOCCOCCNC(=O)NCCCCNC(=O)NCCOCCOCCNS(=O)(=O)c3cccc([C@@H]4CN(C)Cc5c(Cl)cc(Cl)cc54)c3)c2)C1,pIC50,[1],9.30
same,dose excreted,[2],92%
same,Cmax,[3],< 0.5 ng/mL
CO[C@@H]1C[C@@H]2C[C@H](O)CC[C@]2(C)[C@H]2CC[C@]3(C)[C@@H]([C@H](C)CCC(=O)N(C)C[C@H](O)[C@@H](O)[C@H](O)[C@H](O)CO)CC[C@H]3[C@H]12,pEC50,[4],7.21
CO[C@@H]1CC[C@@]2(C)[C@H](CC(OS(=O)(=O)[O-])[C@@H]3[C@@H]2CC[C@]2(C)[C@@H]([C@H](C)CCc4nnn[nH]4)CC[C@@H]32)C1.[Na+] (some centres not stated),Papp A→B,[5],0.4 ×10⁻⁶ cm/s
same,dose excreted,[6],89%
same,AUC,[7],4840 ng·h/mL
Cc1cc(C)c(S(=O)(=O)N(CCc2cccc(Br)c2)Cc2ccc(-c3cccc(S(C)(=O)=O)c3)cc2)c(C)c1,concentration at 2 h,[8],30 µM
same,concentration at 2 h,[9],0.006 µM
CC#CCn1c(N2CCC[C@H](NC(=O)CCOCCOCCOCCOCCOCCOCCN(C)C(=O)CCc3cc(Cl)c(Oc4ccncc4C(=O)N4CCN(C5CC5)c5ccccc54)cc3Cl)C2)nc2c1c(=O)n(Cc1nc(C)c3ccccc3n1)c(=O)n2C,pEC50,[4],7.77
same,Papp A→B,[10],0.03 ×10⁻⁶ cm/s
same,pIC50,Dipeptidyl peptidase 4,4.15
same,Cmax,[11],101 ng/mL
CN(CC[N+](C)(C)C)C(=O)CCc1cc(Cl)c(Oc2ccsc2C(=O)N2CCN(C3CC3)c3ccccc32)cc1Cl.O=C([O-])C(F)(F)F,Papp A→B,[5],0.06 ×10⁻⁶ cm/s
Cc1cc(Nc2cc3ncccc3c(NC3C[C@H]4CC[C@@H](C3)N4CCC#N)n2)n[nH]1 (some centres not stated),Cmax,[12],9.17 µM
same,Papp,[13],1.17 ×10⁻⁶ cm/s
same,efflux ratio,[14],32.5
same,Cmax,[15],0.003 µM
Cc1cccc(Oc2cc(Oc3cccc(C)n3)cc(Oc3cccc(C)n3)c2)n1 [AMELENODOR],Cmax,[16],57 ng/mL
same,Cmax,[12],150000 ng/g
same,Cmax,[17],1e+07 ng/g
CCCCC1(CCCC)CS(=O)(=O)c2ccc(N(C)C)cc2[C@@H](c2ccc(OCc3ccc(C[N+]45CCN(CC4)CC5)cc3)cc2)[C@H]1O [MARALIXIBAT],dose excreted,[18],94%
